Measured values: publication PMC11764660, “Self-Assembled Peptide Hydrogels PPI45 and PPI47: Novel Drug Candidates for Staphylococcus aureus Infection Treatment” (Gels, 2025)

What was measured:
Format in all cases: cell-based, Staphylococcus aureus
[1] = system: S. aureus ATCC43300; assay: SEM observation of bacterial morphology; conditions: 2×MIC, 2 h, 37 °C, 10^8 CFU/mL
Method: This mixture was incubated at 37 °C for 2 h. The 0.01 M PBS (pH 7.4) served as the blank control. After being centrifugated at 4000 rpm for 5 min, the samples were carefully washed three times with 0.01 M PBS. Next, 1 mL of 2.5% glutaraldehyde was added to each sample and stored at 4 °C overnight. The samples were washed twice with distilled water and subsequently dehydrated through a series of ethanol solutions (50%, 70%, 85%, 95%, and 100%). Each sample received three treatments with 100% ethanol, followed by drying at the CO2 critical point, gold sputtering, and observation under a scanning electron microscope.

[2] = system: S. aureus ATCC43300; assay: Cell membrane integrity analysis (PI, flow cytometry); conditions: 2×MIC, 37 °C, 10^8 CFU/mL
Method: The solution was incubated at 37 °C for 0.5, 1, 1.5, and 2 h, respectively, and 0.01 M PBS (pH 7.4) was used as a blank control. After the incubation periods, each sample was centrifugated at 4000 rpm for 5 min. Subsequently, 400 µL of the supernatant was removed, and 400 µL of sterile PBS was added. The samples were washed twice and then resuspended with PBS to a final volume of 450 µL. A 50 µL volume of PI staining solution (500 µg/mL) was added, and the samples were incubated for 15 min in the dark. Finally, the cells fixed with PI were analyzed using flow cytometry.

[3] = system: S. aureus ATCC 43300; assay: Time-dependent bactericidal kinetic curve (time-kill); conditions: 2× MIC, S. aureus ATCC 43300, start 1×10^5 CFU/mL, 37 °C, 250 rpm
Method: The mixture was subsequently incubated in a shaker at 37 °C and 250 rpm. At predetermined intervals (0, 0.5, 1, 2, 4, 6, 10, 22, and 24 h), 100 μL aliquots were withdrawn and subjected to serial 10-fold dilutions before being plated for colony counting.

[4] = system: S. aureus ATCC 43300; assay: PAE assay; conditions: 2×MIC, 2 h exposure of 10^8 CFU/mL at 37 °C, 1000-fold dilution; time for tenfold increase of the colony count
Method: The mixture was subsequently incubated for 2 h at 37 °C and 250 rpm. Upon completion of the incubation period, 50 µL of the solution was withdrawn and diluted 1000-fold by adding […] of pre-warmed MHB, which was designated as the 0 h time point. Subsequently, samples were collected at 0, 0.5, 1, 2, 4, 6, 8, 10, 12, and 24 h. Each sample was subjected to 10-fold serial dilutions before being plated, and colony counts were performed. PBS served as the negative control. The time required for the colony count in each treatment group to increase tenfold relative to the post-reconstruction baseline was determined as PAE.

[5] = system: S. aureus ATCC 43300; assay: Membrane potential (DiSC3(5)); conditions: DiSC3(5) fluorescence, 1×, 2×, 4× MIC, 30 min, 37 °C, three replicates
Method: The fluorescent probe DiSC3(5) (0.5 mM) was co-incubated with PBS (10^8 CFU/mL) of S. aureus for 30 min at 37 °C. A total of 180 µL of bacteria carrying fluorescent probes and 20 µL of peptide solution at varying concentrations were added to 96-well plates and incubated for 30 min at 37 °C. The sample treated with PBS served as the negative control, and each concentration was set as three replicates. The alterations in fluorescence (excitation wavelength: 620 nm, emission wavelength: 670 nm) were monitored in real time over a period of 30 min using a multifunctional enzyme-labeling instrument.

Compound | morphological changes of the bacteria by SEM [1] | membrane penetration rate (PI-positive bacteria) ([2]; 1 h) [%] | membrane penetration rate (PI-positive bacteria) ([2]; 1.5 h) [%] | membrane penetration rate (PI-positive bacteria) ([2]; 2 h) [%] | bacterial count at 6 h [3] [log10 CFU/mL] | bacterial count at 24 h [3] [log10 CFU/mL] | post-antibiotic effect (PAE) [4] [h] | effect on membrane potential [5]
CC1COc2c(N3CCN(C)CC3)c(F)cc3c(=O)c(C(=O)O)cn1c23 (centres unmarked) [ofloxacin, Ofloxacin] | crumpled appearance with leakage of intracellular contents | 0.26 | 0.7 | 1.13 | 2 | 4.15 | 0.77 | 
nisin |  |  |  |  |  |  |  | depolarization
